Experimental data taken from paper PMC11643494, “Structure–Activity Relationship Studies in a Series of 2-Aryloxy-N-(pyrimidin-5-yl)acetamide Inhibitors of SLACK Potassium Channels” (Molecules, 2024).
Values joined by “and” are separate entries in the source; they are usually repeats but may differ in a detail not shown here. Identical values can stand only once.

Molecular target: T1, SLICK (Homo sapiens, UniProt Q6UVM3)
T1 construct: expressed in transfected cells; host or cells: HEK293
Assay: Tl+-flux assay in HEK-293 cells, SLICK
Type: cell-based
Conditions: 10 µM test compound
Source text: Having executed our plan to prepare analogs across the identified regions of the chemotype (Figure 2), we identified two analogs for further profiling and evaluation. […] Desiring to add a second compound with some measure of structural differences, we also chose another submicromolar SLACK inhibitor 66 (VU0936154). Whereas 40 contains an ether linker and a halogenated phenyl group in the eastern region, […] contains an N-methyl linker and a phenyl group with a more polar cyano substituent. We first screened these analogs at 10 µM versus our in-house panel of ion channel targets using Tl^+-flux assays in HEK-293 cells expressing the human target of interest. […] Included in this set are Slo family members SLICK and two isoforms of Maxi-K, as well as several different K^+, Na^+, and Ca^2+ channels (Table 6). […] Of note was the excellent selectivity versus the broader panel of targets for both compounds, including versus the hERG channel.
Stably transfected monoclonal HEK293 cell lines expressing SLICK, Maxi-K α1/β3, Maxi-K α1/β4, CaV3.2, GIRK 1/2, KV2.1, KV7.2, NaV1.7, and TASK-1 were generated as previously described. […]
The Tl^+ flux assays were conducted as previously described, with modifications optimized for individual cell lines as described below. […] Cell plates were then loaded onto a Panoptic kinetic imaging plate reader (WaveFront Biosciences, Franklin, TN, USA). […]

T1 sequence (Q6UVM3 whole entry): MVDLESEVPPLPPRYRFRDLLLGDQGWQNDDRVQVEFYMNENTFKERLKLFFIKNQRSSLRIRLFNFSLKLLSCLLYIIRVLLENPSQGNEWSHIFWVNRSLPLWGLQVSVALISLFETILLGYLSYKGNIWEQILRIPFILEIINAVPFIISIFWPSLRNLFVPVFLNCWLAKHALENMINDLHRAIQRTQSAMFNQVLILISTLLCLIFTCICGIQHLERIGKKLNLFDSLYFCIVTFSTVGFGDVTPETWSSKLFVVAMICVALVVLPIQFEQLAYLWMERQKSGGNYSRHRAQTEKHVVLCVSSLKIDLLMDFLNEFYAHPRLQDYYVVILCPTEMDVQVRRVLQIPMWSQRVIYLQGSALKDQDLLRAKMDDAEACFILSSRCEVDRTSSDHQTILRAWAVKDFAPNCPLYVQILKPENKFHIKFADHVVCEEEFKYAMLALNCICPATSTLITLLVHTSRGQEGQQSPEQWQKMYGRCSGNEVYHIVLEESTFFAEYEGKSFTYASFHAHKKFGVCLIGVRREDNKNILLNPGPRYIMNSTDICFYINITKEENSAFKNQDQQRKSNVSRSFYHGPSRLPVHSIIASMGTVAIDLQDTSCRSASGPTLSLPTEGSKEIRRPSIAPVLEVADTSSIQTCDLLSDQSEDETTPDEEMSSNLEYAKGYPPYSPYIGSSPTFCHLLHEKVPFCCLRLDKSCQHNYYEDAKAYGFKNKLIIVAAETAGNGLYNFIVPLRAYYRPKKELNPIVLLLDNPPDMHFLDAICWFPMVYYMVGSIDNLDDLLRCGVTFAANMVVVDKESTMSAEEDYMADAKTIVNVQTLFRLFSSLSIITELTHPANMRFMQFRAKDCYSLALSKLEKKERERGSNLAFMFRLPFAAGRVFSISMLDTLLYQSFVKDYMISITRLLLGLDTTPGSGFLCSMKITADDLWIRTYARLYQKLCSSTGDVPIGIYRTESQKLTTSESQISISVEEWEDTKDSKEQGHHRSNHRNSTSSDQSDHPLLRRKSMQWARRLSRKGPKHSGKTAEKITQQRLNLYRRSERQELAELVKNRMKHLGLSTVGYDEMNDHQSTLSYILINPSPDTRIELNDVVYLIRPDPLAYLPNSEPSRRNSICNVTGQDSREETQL

Row | Structure (SMILES) | inhibition at 10 µM (HEK293, relative to control SKF96365, read-out: Percent Inhibition ± SEM, SLICK) [%] | Percent activation ± SEM, SLICK (activator, relative to control acetazolamide)
1 | CN(c1ccc(C#N)cc1)c1ncc(NC(=O)C(C)(C)Oc2ccc(Cl)cc2)cn1 [Analog 66] | 16 ± 1.4 | 
2 | CC(C)(Oc1ccc(Cl)cc1)C(=O)Nc1cnc(Oc2c(F)cccc2F)nc1 [Analog 40] |  | 36% and 36 ± 8.8 (activator) ^3%
